Key:
[1] = test system: ARID1A-mutated TOV21G tumors; experiment: intrabursal orthotopic xenograft, ARID1A-mutated TOV21G; assay type: in vivo, mice
From the text: Luciferase-expressing ARID1A-mutated TOV21G cells were orthotopically transplanted into the ovarian bursa sac of SCID/nude female mice. Tumors were allowed to establish for 14 days before randomized into two groups (n=6/group).
During treatment at indicated time interval mice were imaged based on luciferase expression to monitor tumor growth. Total flux (photons/sec) is graphed. *p=0.0313.
ARID1A-mutated TOV21G cells were orthotopically transplanted into the ovarian bursa sac of SCID/nude female mice. Tumors were allowed to establish for 2 weeks before the mice were randomized into two different treatment groups (n=5/group). […] After stopping the treatment, the mice from the indicated groups were followed for survival. Shown is the Kaplan-Meier survival curves for ACY1215 or vehicle control treated mice. The p-value was calculated by log-rank test.
The number of disseminated tumor nodules in peritoneal cavity was quantified.
Histological score (H-score) was calculated for 5 separate fields from 6 tumors from 6 individual mice from each of the indicated groups. Error bars represent S.E.M. The p-value was calculated via two-tailed t-test.
Immunofluorescence and immunohistochemical staining was performed as follows. Immunofluorescence was performed after 48 hours as indicated by fixing samples in 4% paraformaldehyde and permeabilizing with 0.5% Triton-X. Samples were incubated with primary antibodies for 2 hours at room temperature, highly cross absorbed secondary antibodies (Invitrogen) for 1 hour at room temperature and mounted with prolong anti-fade reagent (Invitrogen). Immuno-stained cells were imaged using a Leica Confocal microscope. […] Bitler et al. Nat. Med. 2015, 21, 231-238; Bitler et al. Cancer Research 2011, 71, 6184-6194. Expression of the stained markers was scored using a histologic score (H score) as previously described. McCarty, Jr. et al. Cancer research 1986, 46, 4244s-4248s.
The intrabursal orthotopic xenograft in vivo model was performed as described previously (Bitler et al. Nat. Med. 2015, 21, 231-238; Bitler et al. Cancer Research 2011, 71, 6184-6194). The protocols were approved by the Institutional Animal Care and Use Committee (IACUC). Briefly, 1×10^6 luciferase-expressing TOV-21G or RMG1 cells were unilaterally injected into the ovarian bursa sac of immunocompromised mice (n=6 per group). Two weeks after injection, tumors were visualized by injecting luciferin (intraperitoneal (i.p.): 4 mg/mice) resuspended in PBS and imaged with an In Vivo Imaging System (IVIS). […] Images were analyzed using Live Imaging 4.0 software. At end of the experiments, tumors were surgically dissected and tumor burden was calculated based on tumor weight. Intraperitoneally disseminated tumor nodules were quantified.
Seidel et al. Epigenomics 2015, 7, 103-118. […] Santo et al. Blood 2012, 119, 2579-2589. To determine the effects of HDAC6 inhibition in vivo on the growth of ARID1A-mutated tumors, luciferase-expressing ARID1A-mutated TOV21G cells were orthotopically transplanted into the bursa-sac covering the ovary of immunocompromised nude mice to mimic the tumor microenvironment. The injected ARID1A wild-type or mutant cells were allowed to grow for 2 weeks to establish the orthotopic tumors.

[2] = test system: ARID1A-mutated TOV21G and OVISE cells; experiment: apoptosis (Annexin V, cleaved caspase 3, cleaved PARP p85) in ARID1A-mutated cells; assay type: cell-based, human
Method: FIG. 10 illustrates the finding that HDAC6 inhibition induces apoptosis in ARID1A-inactivated cells. […] Cells were collected and stained for apoptotic markers Annexin V. Apoptotic cells were quantified. Error bars represent standard error of the mean. The p-value was calculated via a two-tailed t-test.
FIG. 11 illustrates the results of the experiments of FIG. 10, but examined for apoptotic markers cleaved caspase 3 and cleaved PARP p85 by immunoblot. GAPDH expression was used as a loading control.
Cells were collected, incubated with an Annexin V-FITC antibody and subjected to flow cytometry analysis. Annexin V-positive cells (apoptotic) were measured with FloJo software. Mean of three independent experiments with S.E.M.
FIG. 78 illustrates percent apoptosis based on Annexin V staining in ARID1A mutated TOV21G cells treated with 1.25 μM ACY1215, 20 μM pan-caspase inhibitor Q-VD-Oph, or a combination for 48 hrs.
FIG. 79 illustrates percent apoptosis based on Annexin V staining in ARID1A mutated TOV21G cells treated with 1.25 μM ACY1215 for 48 hrs with or without knockdown of caspase 3 or caspase 9.
For immunoblotting, protein was isolated as described in Bitler et al. Nat. Med. 2015, 21, 231-238. Briefly, protein was extracted with RIPA buffer (150 mM NaCl, 1% NP40, 0.5% sodium deoxycholate, 0.1% SDS, 50 mM Tris pH 8.0, and 1 mM PMSF). Protein was separated on a SDS-PAGE and transferred to PVDF membrane. For immunoblot of p53 post-translation modifications, cells were treated with a proteasome inhibitor MG132 (10 μM) to stabilize p53 protein.
(§1) Annexin V and mitochondria membrane potentials were measured as follows. Phosphatidylserine externalization was detected using an Annexin V staining kit (Life Technologies) following the manufacturer's instructions. To measure change in mitochondria membrane potential cells were treated with 200 nM of tetramethylrhodamine, ethyl ester (TMRE; Abcam) for 15 min at 37° C. Annexin V and TMRE-positive cells were detected using the LSR18 and analyzed with the FlowJo software module.

[3] = test system: ARID1A wild-type RMG1 cells with or without shARID1A; experiment: mitochondrial membrane potential (TMRE, FACS), RMG1; assay type: cell-based, human; conditions: 1.25 μM
Method: The mitochondria membrane potential was quantified by TMRE using FACS analysis. Data was collected via FACS and is representative of 3 independent experiments.
Error bars represent standard error mean. The p-value was calculated via two-tailed t-test.
as §1

[4] = test system: ARID1A-mutated OVISE cells; experiment: growth inhibition with or without p53 knockdown, OVISE; assay type: cell-based, human
Method: Growth inhibition was calculated based on integrated density as measured in NIH ImageJ, and values were normalized to vehicle control. Data is representative of 3 independent experiments. Error bars represent S.E.M. p-value calculated via two-tailed t-test.
Colony formation assays were performed as follows. Cell lines were infected with lentivirus pLKO.1-shRNAs or pLKO.1-control with puromycin selection marker. Infected cells were selected with 1 μg/mL of puromycin for 72 hours and the selected cells were seeded in 12-well or 24-well plates. Cell medium was changed every three days with appropriate drug doses for 14 days or until control wells became confluent. Colonies were washed twice with PBS and fixed with 10% methanol and 10% acetic acid in distilled water. Fixed colonies were stained with 0.005% crystal violet. Integrated density was measured using NIH ImageJ software.

[5] = dissected ARID1A-mutated tumors

Structure (SMILES): O=C(CCCCCCNC(=O)c1cnc(N(c2ccccc2)c2ccccc2)nc1)NO [rocilinostat, 2-(diphenylamino)-N-(7-(hydroxyamino)-7-oxoheptyl)pyrimidine-5-carboxamide]
- growth of ARID1A-mutated tumors (luciferase total flux) ([1]; 50 mg/kg daily i.p., 21 days): significantly inhibited the growth
- number of tumor nodules in peritoneal cavity ([1]; 50 mg/kg daily, 3 weeks): significant decrease in the number of tumor nodules
- tumor burden (tumor weight) ([1]; 50 mg/kg daily, 3 weeks): significantly reduced the burden
- survival of mice bearing ARID1A-mutated tumors ([1]; 50 mg/kg daily, 3 weeks, followed after stopping treatment): significantly improved the survival
- median survival ([1]; 50 mg/kg daily, 3 weeks, vehicle control 35 days, p=0.0023): 51 days
- HDAC6 expression (IHC) [1, 5]: not affected
- apoptotic marker cleaved caspase 3 (IHC H-score) [1, 5]: increased
- cell proliferation marker Ki67 (IHC H-score) [1, 5]: significantly decreased
- p53K120Ac staining (IHC) [1, 5]: significantly increased
- apoptosis induced by the compound after knockdown of Caspase 8 [2]: did not affect the apoptosis
- apoptosis induced by the compound after knockdown of caspase 9 or caspase 3 ([2]; TOV21G, 1.25 μM, 48 hrs): significantly suppressed the apoptosis
- apoptosis: Annexin V positive cells, cleaved caspase 3, cleaved PARP p85 ([2]; rocilinostat 1.25 μM, 48 hours): induced apoptosis
- mitochondrial membrane potential, ARID1A knockdown compared with controls [3]: significantly decreased
- effect of p53 knockdown on apoptosis and growth inhibition induced by the compound [4]: significantly impaired the apoptosis and growth inhibition

Reference: US20190192521A1, “Methods of Treating Arid1A-Mutated Cancers With HDAC6 Inhibitors and EZH2 Inhibitors” (The Wistar Institute of Anatomy and Biology, priority 2016, published 2019)
